{"source": "patent US10450549B2", "about": "“Aryloxyphenoxypropionate tolerance in turfrgass species and use of AAD1 as a selectable marker” (Dow AgroSciences, LLC, priority 2004, dated 2019)", "key": {"[1]": {"tested_on": "Non-transformed Hi-II callused suspension tissue", "assay": "Dose response of non-transformed maize callus tissue", "format": "cell-based"}, "[2]": {"tested_on": "DAS Soybean cell suspensions", "assay": "Glufosinate selection of soybean suspension cells", "format": "cell-based", "protocol": "The DAS Soybean cell suspensions were cultured on a 3 d cycle with 10 ml of settled suspension volume transferred to 115 ml of fresh liquid medium. Settled cell volume was determined by allowing the cell suspension to settle for 2 min in the 125-mL flask after vigorous swirling and then drawing cells from the bottom of the flask with a wide bore 10 ml pipette. The flasks were then transferred to orbital shakers at 140 rpm.\nAliquots of 4 ml of the suspension cells at 0.72 OD^600 was transferred along with 200 μM acetosyringone (AS) onto a 100×25 sterile Petri plate. EHA105 Agrobacterium suspension at a density of 1.2 OD^650 in a 100 μL volume was added and mixed well. The Agrobacterium and suspension cell mixture was swirled well and the plate was transferred to dark growth chamber where the temperature was maintained at 25° C.\n13.2.1—Selection of soybean suspension cells and isolation of transformed colonies. After 4 days of co-cultivation the plate was swirled again to mix the suspension well and a 1.5 ml aliquot was transferred to the selection medium and spread on the gel medium on a 100×15 ml Petri-plate. […] After a 10 min drying in the hood the plates were incubated for 4 weeks in dark at 28° C. Colonies appeared in selection and a total of 11 colonies were transferred to fresh medium from 3 different experiments and maintained for 3-4 months. […]"}, "[3]": {"tested_on": "Arabidopsis thaliana var. Columbia", "assay": "Arabidopsis plate test bioassay for herbicide degradation", "format": "in vivo", "conditions": "for IC50: Arabidopsis thaliana, 168 h"}, "[4]": {"tested_on": "T4 Arabidopsis homozygous for AAD1 (v3) (line AAD1.01.315.076)", "assay": "Foliar-applied auxinic herbicides on homozygous T4 AAD1 (v3) Arabidopsis, % injury 14 DAT", "format": "in vivo, Arabidopsis thaliana", "conditions": "AAD1.01.315.076.T4 homozygous AAD1 plants", "summary_of_the_method": "(§1)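 Homozygous T4 AAD1 (v3) Arabidopsis (line AAD1.01.315.076) and a PAT/Cry1F transformed control were grown in pots and track-sprayed foliarly at 187 L/ha with herbicides formulated in 200 mM Hepes pH 7.5. Injury was rated 14 days after treatment, with 3-4 replicates averaged over two experiments.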"}, "[5]": {"tested_on": "wt ARBTH", "assay": "In vitro plate test of herbicide cross resistance: wild-type Arabidopsis", "format": "in vivo, Arabidopsis thaliana", "conditions": "7 days", "protocol": "(§2) The ability of AAD1 (v3) to provide resistance to other aryloxyphenoxyalkanoate herbicides in transgenic Arabidopsis was determined using a modified in vitro plate assay. Seeds from wild-type Arabidopsis thaliana as well as Arabidopsis thaliana containing the plant optimized AAD1 (v3) gene (T4 homozygous plants id=PAAD1.315.064) were sterilized by agitating for 10 min in a 50% bleach solution. These seeds were then rinsed four times with sterile water to remove the bleach.\n(§3) Dose response assays utilized a nutrient media (see below) supplemented with various rates of test compounds. The test compounds were added to the heated media (55° C.) as concentrated solutions in DMSO. Control wells had the appropriate amount of DMSO without any additional compound. The final concentration of DMSO never exceeded 1% (v/v). After thorough mixing, a 6 mL aliquot of the warm media containing the appropriate concentration of compound was added to each well of a 6-well, flat bottom, polystyrene tissue culture tray (Falcon 353046, Becton Dickson and Company, Franklin Lakes, N.J.). After the media solidified, approximately 20 to 30 Arabidopsis seeds were applied on top of the solidified media and the remaining 2 mL of media was poured over the seeds. The plates were lightly agitated to disperse the seeds, covered and allowed to cool until the media had completely solidified. The plates were incubated for 7 days at 25° C. under continual fluorescent lighting (75 μE m^−2 s^−1). Nutrient Media Composition was as described in Example 2.2 and in Somerville and Orgen (1982).\n(§4) Assessment of Growth Reduction. The apical portion of the Arabidopsis plants grown in the treated media was assessed visually relative to the apical portion of the plants grown in the media containing only DMSO. Values were recorded as % growth reduction. Assessments of root growth inhibition of the Arabidopsis plants grown in the treated media were achieved by carefully extracting the plants from the media and measuring the length of the root. These root lengths were then compared to the root length of the control plants to determine a % growth reduction. A minimum of five plants were assessed for each treatment. The values recorded are an average of all the plants assessed. The calculated concentration to reach 50% inhibition effect (I50) were determined for both root and shoots of wildtype and AAD1-transformed Arabidopsis. The ratios of resistant to sensitive biotypes are included in Table 19. A ratio>2 for both root and shoot measurements generally signifies significant resistance. The higher the ratio, the greater the level of resistance. […] The broad phenoxy auxin resistance is the first reported in planta."}, "[6]": {"molecular_target": "T1, AAD1 (v1) (Sphingobium herbicidovorans, UniProt Q8KSC8)", "T1 construct": "made in house; host or cells: E. coli BL-21 Star (DE3), plasmid pDAB3203", "T1 sequence (Q8KSC8 whole entry)": "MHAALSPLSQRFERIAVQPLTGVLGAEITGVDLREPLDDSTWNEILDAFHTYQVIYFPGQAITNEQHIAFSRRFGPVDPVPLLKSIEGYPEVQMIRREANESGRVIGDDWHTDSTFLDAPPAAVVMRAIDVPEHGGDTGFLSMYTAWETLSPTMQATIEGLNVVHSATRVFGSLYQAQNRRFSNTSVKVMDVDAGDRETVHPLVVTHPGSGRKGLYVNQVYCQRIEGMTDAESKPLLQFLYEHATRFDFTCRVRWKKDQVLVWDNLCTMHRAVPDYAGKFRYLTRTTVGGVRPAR", "assay": "HPLC analysis of herbicide degradation by AAD1 (v1) cell extract", "format": "biochemical", "conditions": "AAD1 (v1) cell extract, same conditions as 2,4-D"}, "[7]": {"tested_on": "PAAD1.315.064 ARBTH", "assay": "In vitro plate test of herbicide cross resistance: homozygous T4 AAD1 (v3) Arabidopsis", "format": "in vivo, Arabidopsis thaliana", "protocol": "as §2, §3, §4"}, "[8]": {"tested_on": "transformed-control line containing PAT and Cry1F", "assay": "Foliar-applied auxinic herbicides on control (PAT/Cry1F, wildtype) Arabidopsis, % injury 14 DAT", "format": "in vivo, Arabidopsis thaliana", "conditions": "PatCry1f - Control", "summary_of_the_method": "as §1"}, "[9]": {"conditions": "resistant to sensitive biotype, >2 signifies resistance"}}, "note": "Like-named read-outs stand apart in the source and are kept apart here."}
{"smiles": "N#Cc1ccc(Oc2ccc(O)cc2)c(F)c1", "note": "[cyhalofop phenol]", "values": [{"measurement": "callus growth relative to control without cyhalofop phenol", "setting": "[1]; 1 μM", "value": 76, "unit": "%"}]}
{"smiles": "CP(=O)(O)CCC(N)C(=O)O", "note": "(centres unmarked) [glufosinate ammonium]", "values": [{"measurement": "response of non-transformed suspension cells", "setting": "[2]; 0.5 mg/l", "value": "sensitive"}, {"measurement": "response of transformed colonies", "setting": "[2]; 5 mg/L (5× concentration), up to 4 months", "value": "resistant"}]}
{"smiles": "O=C(O)COc1nc(Cl)c(Cl)cc1Cl", "note": "[Triclopyr]", "values": [{"measurement": "IC50", "setting": "[3]; AAD1 (v1)-expressing lysate, nominal concentration, read-out: GR50, Chemical + AAD1 v1", "value": 1, "unit": "µM"}, {"measurement": "IC50", "setting": "[3]; root length, 7 days, read-out: GR50, Chemical alone", "value": 0.255, "unit": "µM"}, {"measurement": "GR50 ratio", "setting": "[3]; enzyme-expressing lysate vs blank vector, ≥ 2 = threshold for activity loss", "value": 1}, {"measurement": "Ave % Injury 14DAT", "setting": "[4]; 50 g ae/ha foliar", "value": 31, "unit": "%"}, {"measurement": "Ave % Injury 14DAT", "setting": "[4]; 200 g ae/ha foliar", "value": 58, "unit": "%"}, {"measurement": "Ave % Injury 14DAT", "setting": "[4]; 800 g ae/ha foliar", "value": 74, "unit": "%"}, {"measurement": "Ave % Injury 14DAT", "setting": "[4]; 3200 g ae/ha foliar", "value": 97, "unit": "%"}, {"measurement": "wt ARBTH root 150", "setting": "[5]; root", "value": 0.02, "unit": "ppm"}, {"measurement": "wt ARBTH shoot 150", "setting": "[5]; shoot", "value": 0.2, "unit": "ppm"}, {"measurement": "enzyme activity on substrate (HPLC)", "setting": "[6]", "value": "No enzyme activity was detected"}, {"measurement": "root ratio", "setting": "[7]; [9]", "value": 1}, {"measurement": "shoot ratio", "setting": "[7]; [9]", "value": 0.2}, {"measurement": "resistance afforded by AAD1 (v3) in plate test", "setting": "[7]; root and shoot assessment", "value": "did not effectively protect"}, {"measurement": "PAAD1.315.064 ARBTH root 150", "setting": "[7]; root, 7 days", "value": 0.02, "unit": "ppm"}, {"measurement": "PAAD1.315.064 T3 ARBTH shoot 150", "setting": "[7]; shoot, 7 days", "value": 0.04, "unit": "ppm"}, {"measurement": "Ave % Injury 14DAT", "setting": "[8]; 50 g ae/ha foliar", "value": 36, "unit": "%"}, {"measurement": "Ave % Injury 14DAT", "setting": "[8]; 200 g ae/ha foliar", "value": 65, "unit": "%"}, {"measurement": "Ave % Injury 14DAT", "setting": "[8]; 800 g ae/ha foliar", "value": 84, "unit": "%"}, {"measurement": "Ave % Injury 14DAT", "setting": "[8]; 3200 g ae/ha foliar", "value": 95, "unit": "%"}]}
{"smiles": "Oc1ccc(Oc2ncc(C(F)(F)F)cc2Cl)cc1", "note": "[haloxyfop phenol]", "values": [{"measurement": "callus growth relative to control lacking haloxyfop phenol", "setting": "[1]; 300 nM", "value": "equal to or greater than the control"}]}
